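Cultured in 96-well plates, cells were exposed to test compound for 48 hours across five concentrations. The concentration for 50% growth inhibition is given as GI50. TGI marks complete inhibition of growth.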
Legend:
Assay in all cases: DTP human tumour cell line panel, 48 h
786-0 renal = test system: 786-0 renal
A498 renal = test system: A498 renal
A549 NSCLC = test system: A549 NSCLC
ACHN renal = test system: ACHN renal
BT-549 breast = test system: BT-549 breast
CAKI-1 renal = test system: CAKI-1 renal
CCRF-CEM leukemia = test system: CCRF-CEM leukemia
COLO 205 colon = test system: COLO 205 colon
DU-145 prostate = test system: DU-145 prostate
EKVX NSCLC = test system: EKVX NSCLC
HCC-2998 colon = test system: HCC-2998 colon
HCT-116 colon = test system: HCT-116 colon
HCT-15 colon = test system: HCT-15 colon
HL-60(TB) leukemia = test system: HL-60(TB) leukemia
HOP-62 NSCLC = test system: HOP-62 NSCLC
HOP-92 NSCLC = test system: HOP-92 NSCLC
HS 578T breast = test system: HS 578T breast
HT29 colon = test system: HT29 colon
IGROV1 ovarian = test system: IGROV1 ovarian
K-562 leukemia = test system: K-562 leukemia
KM12 colon = test system: KM12 colon
LOX IMVI melanoma = test system: LOX IMVI melanoma
M14 melanoma = test system: M14 melanoma
MALME-3M melanoma = test system: MALME-3M melanoma
MCF7 breast = test system: MCF7 breast
MDA-MB-231 breast = test system: MDA-MB-231 breast
MDA-MB-435 = test system: MDA-MB-435
MOLT-4 leukemia = test system: MOLT-4 leukemia
NCI-H460 lung = test system: NCI-H460 lung
NCI-H522 lung = test system: NCI-H522 lung
NCI/ADR-RES ovarian = test system: NCI/ADR-RES ovarian
OVCAR-3 ovarian = test system: OVCAR-3 ovarian
OVCAR-4 ovarian = test system: OVCAR-4 ovarian
OVCAR-5 ovarian = test system: OVCAR-5 ovarian
OVCAR-8 ovarian = test system: OVCAR-8 ovarian
PC-3 prostate = test system: PC-3 prostate
RPMI-8226 leukemia = test system: RPMI-8226 leukemia
RXF 393 renal = test system: RXF 393 renal
SF-268 CNS = test system: SF-268 CNS
SF-295 CNS = test system: SF-295 CNS
SF-539 CNS = test system: SF-539 CNS
SK-MEL-2 melanoma = test system: SK-MEL-2 melanoma
SK-MEL-28 melanoma = test system: SK-MEL-28 melanoma
SK-MEL-5 melanoma = test system: SK-MEL-5 melanoma
SK-OV-3 ovarian = test system: SK-OV-3 ovarian
SN12C renal = test system: SN12C renal
SNB-19 CNS = test system: SNB-19 CNS
SNB-75 CNS = test system: SNB-75 CNS
SR leukemia = test system: SR leukemia
SW-620 colon = test system: SW-620 colon
T-47D breast = test system: T-47D breast
TK-10 renal = test system: TK-10 renal
U251 CNS = test system: U251 CNS
UACC-257 melanoma = test system: UACC-257 melanoma
UACC-62 melanoma = test system: UACC-62 melanoma
UO-31 renal = test system: UO-31 renal
NCI-H226 lung = test system: NCI-H226 lung
NCI-H23 lung = test system: NCI-H23 lung

Nc1nc(-c2cccc([N+](=O)[O-])c2)c(N=Nc2ccc(Br)cc2)s1
GI50 (786-0 renal): 13.6 µM
TGI (786-0 renal): 27.5 µM
GI50 (A498 renal): 16.7 µM
TGI (A498 renal): 31.7 µM
GI50 (A549 NSCLC): 17 µM
TGI (A549 NSCLC): 35.1 µM
GI50 (ACHN renal): 14.2 µM
TGI (ACHN renal): 27.3 µM
GI50 (BT-549 breast): 15.7 µM
TGI (BT-549 breast): 40.8 µM
GI50 (CAKI-1 renal): 12 µM
TGI (CAKI-1 renal): 24.3 µM
GI50 (CCRF-CEM leukemia): 13.4 µM
TGI (CCRF-CEM leukemia): > 100 µM
GI50 (COLO 205 colon): 24.6 µM
TGI (COLO 205 colon): 94 µM
GI50 (DU-145 prostate): 8.14 µM
TGI (DU-145 prostate): 25.8 µM
GI50 (EKVX NSCLC): 17.9 µM
TGI (EKVX NSCLC): 64.1 µM
GI50 (HCC-2998 colon): 18.7 µM
TGI (HCC-2998 colon): 38.8 µM
GI50 (HCT-116 colon): 4.63 µM
TGI (HCT-116 colon): 16 µM
GI50 (HCT-15 colon): 5.57 µM
TGI (HCT-15 colon): 33.2 µM
GI50 (HL-60(TB) leukemia): 91.2 µM
TGI (HL-60(TB) leukemia): > 100 µM
GI50 (HOP-62 NSCLC): 15.2 µM
TGI (HOP-62 NSCLC): 29.8 µM
GI50 (HOP-92 NSCLC): 10.1 µM
TGI (HOP-92 NSCLC): 32.1 µM
GI50 (HS 578T breast): 19.3 µM
TGI (HS 578T breast): > 100 µM
GI50 (HT29 colon): 19.4 µM
TGI (HT29 colon): > 100 µM
GI50 (IGROV1 ovarian): 16.2 µM
TGI (IGROV1 ovarian): 47.8 µM
GI50 (K-562 leukemia): 10.3 µM
TGI (K-562 leukemia): > 100 µM
GI50 (KM12 colon): 16.1 µM
TGI (KM12 colon): > 100 µM
GI50 (LOX IMVI melanoma): 4 µM
TGI (LOX IMVI melanoma): 26.6 µM
GI50 (M14 melanoma): 17.3 µM
TGI (M14 melanoma): 38.8 µM
GI50 (MALME-3M melanoma): 16.3 µM
TGI (MALME-3M melanoma): 30.5 µM
GI50 (MCF7 breast): 12.7 µM
TGI (MCF7 breast): > 100 µM
GI50 (MDA-MB-231 breast): 7.74 µM
TGI (MDA-MB-231 breast): 24 µM
GI50 (MDA-MB-435): 20.5 µM
TGI (MDA-MB-435): 57.2 µM
GI50 (MOLT-4 leukemia): 12 µM
TGI (MOLT-4 leukemia): > 100 µM
GI50 (NCI-H460 lung): 12.8 µM
TGI (NCI-H460 lung): 44.6 µM
GI50 (NCI-H522 lung): 10.9 µM
TGI (NCI-H522 lung): 35.8 µM
GI50 (NCI/ADR-RES ovarian): 7.93 µM
TGI (NCI/ADR-RES ovarian): > 100 µM
GI50 (OVCAR-3 ovarian): 18.6 µM
TGI (OVCAR-3 ovarian): 41.3 µM
GI50 (OVCAR-4 ovarian): 11.1 µM
TGI (OVCAR-4 ovarian): 63.3 µM
GI50 (OVCAR-5 ovarian): 20.3 µM
TGI (OVCAR-5 ovarian): 54.4 µM
GI50 (OVCAR-8 ovarian): 10.2 µM
TGI (OVCAR-8 ovarian): 33.6 µM
GI50 (PC-3 prostate): 20.2 µM
TGI (PC-3 prostate): 86 µM
GI50 (RPMI-8226 leukemia): 21 µM
TGI (RPMI-8226 leukemia): > 100 µM
GI50 (RXF 393 renal): 12.6 µM
TGI (RXF 393 renal): 25.4 µM
GI50 (SF-268 CNS): 19.1 µM
TGI (SF-268 CNS): 99.4 µM
GI50 (SF-295 CNS): 23 µM
TGI (SF-295 CNS): 49.8 µM
GI50 (SF-539 CNS): 3 µM
TGI (SF-539 CNS): 10.4 µM
GI50 (SK-MEL-2 melanoma): 18.6 µM
TGI (SK-MEL-2 melanoma): 51.8 µM
GI50 (SK-MEL-28 melanoma): 18.7 µM
TGI (SK-MEL-28 melanoma): 47 µM
GI50 (SK-MEL-5 melanoma): 16.9 µM
TGI (SK-MEL-5 melanoma): 31.5 µM
GI50 (SK-OV-3 ovarian): 16 µM
TGI (SK-OV-3 ovarian): 30.1 µM
GI50 (SN12C renal): 14.1 µM
TGI (SN12C renal): 37.2 µM
GI50 (SNB-19 CNS): 20.3 µM
TGI (SNB-19 CNS): 50.1 µM
GI50 (SNB-75 CNS): 18.4 µM
TGI (SNB-75 CNS): 41.1 µM
GI50 (SR leukemia): 21.6 µM
TGI (SR leukemia): > 100 µM
GI50 (SW-620 colon): 15.4 µM
TGI (SW-620 colon): 78.8 µM
GI50 (T-47D breast): 9.84 µM
TGI (T-47D breast): 46 µM
GI50 (TK-10 renal): 21.6 µM
TGI (TK-10 renal): 36.5 µM
GI50 (U251 CNS): 14.2 µM
TGI (U251 CNS): 33.6 µM
GI50 (UACC-257 melanoma): 22.4 µM
TGI (UACC-257 melanoma): 50.8 µM
GI50 (UACC-62 melanoma): 15.1 µM
TGI (UACC-62 melanoma): 41.4 µM
GI50 (UO-31 renal): 12.7 µM
TGI (UO-31 renal): 25.2 µM

C#C[C@]1(O)CC[C@H]2[C@@H]3CC=C4c5sc(Nc6cc(Cl)ccc6OC)nc5CC[C@]4(C)[C@H]3CC[C@@]21C
GI50 (786-0 renal): 0.381 µM
TGI (786-0 renal): 1.97 µM
GI50 (A498 renal): 0.219 µM
TGI (A498 renal): 1.05 µM
GI50 (A549 NSCLC): 2.86 µM
TGI (A549 NSCLC): > 100 µM
GI50 (BT-549 breast): 0.797 µM
TGI (BT-549 breast): 5.46 µM
GI50 (CAKI-1 renal): 1.52 µM
TGI (CAKI-1 renal): 4.15 µM
GI50 (COLO 205 colon): 2.19 µM
TGI (COLO 205 colon): 4.39 µM
GI50 (EKVX NSCLC): 1.63 µM
TGI (EKVX NSCLC): 6.39 µM
GI50 (HCC-2998 colon): 1.75 µM
TGI (HCC-2998 colon): 3.39 µM
GI50 (HCT-116 colon): 1.13 µM
TGI (HCT-116 colon): 2.56 µM
GI50 (HCT-15 colon): 1.33 µM
TGI (HCT-15 colon): 3.26 µM
GI50 (HL-60(TB) leukemia): 0.84 µM
TGI (HL-60(TB) leukemia): 3.96 µM
GI50 (HOP-62 NSCLC): 2.56 µM
TGI (HOP-62 NSCLC): > 100 µM
GI50 (HOP-92 NSCLC): 2.47 µM
TGI (HOP-92 NSCLC): 6.75 µM
GI50 (HS 578T breast): 0.486 µM
TGI (HS 578T breast): 5.87 µM
GI50 (HT29 colon): 1.79 µM
TGI (HT29 colon): 4.86 µM
GI50 (IGROV1 ovarian): 1.79 µM
TGI (IGROV1 ovarian): 5.64 µM
GI50 (K-562 leukemia): 0.581 µM
TGI (K-562 leukemia): 9.42 µM
GI50 (KM12 colon): 1.97 µM
TGI (KM12 colon): 4.35 µM
GI50 (LOX IMVI melanoma): 1.38 µM
TGI (LOX IMVI melanoma): 2.88 µM
GI50 (M14 melanoma): 1.4 µM
TGI (M14 melanoma): 4.93 µM
GI50 (MALME-3M melanoma): 1.33 µM
TGI (MALME-3M melanoma): 3.7 µM
GI50 (MCF7 breast): 0.808 µM
TGI (MCF7 breast): 2.35 µM
GI50 (MDA-MB-231 breast): 1.96 µM
TGI (MDA-MB-231 breast): 4.88 µM
GI50 (MDA-MB-435): 1.89 µM
TGI (MDA-MB-435): 5.41 µM
GI50 (MOLT-4 leukemia): 0.454 µM
TGI (MOLT-4 leukemia): 4.6 µM
GI50 (NCI-H226 lung): 1.62 µM
TGI (NCI-H226 lung): 3.51 µM
GI50 (NCI-H23 lung): 1.81 µM
TGI (NCI-H23 lung): > 100 µM
GI50 (NCI/ADR-RES ovarian): 2.52 µM
TGI (NCI/ADR-RES ovarian): 48.8 µM
GI50 (OVCAR-3 ovarian): 1.64 µM
TGI (OVCAR-3 ovarian): 3.56 µM
GI50 (OVCAR-4 ovarian): 3.54 µM
TGI (OVCAR-4 ovarian): > 100 µM
GI50 (OVCAR-8 ovarian): 3.55 µM
TGI (OVCAR-8 ovarian): > 100 µM
GI50 (RPMI-8226 leukemia): 0.251 µM
TGI (RPMI-8226 leukemia): 0.684 µM
GI50 (RXF 393 renal): 0.178 µM
TGI (RXF 393 renal): 0.503 µM
GI50 (SF-268 CNS): 2.21 µM
TGI (SF-268 CNS): > 100 µM
GI50 (SF-295 CNS): 0.306 µM
TGI (SF-295 CNS): 1.12 µM
GI50 (SF-539 CNS): 0.359 µM
TGI (SF-539 CNS): 1.46 µM
GI50 (SK-MEL-2 melanoma): 1.3 µM
TGI (SK-MEL-2 melanoma): 4.61 µM
GI50 (SK-MEL-28 melanoma): 0.42 µM
TGI (SK-MEL-28 melanoma): 1.66 µM
GI50 (SK-MEL-5 melanoma): 1.93 µM
TGI (SK-MEL-5 melanoma): 4.05 µM
GI50 (SK-OV-3 ovarian): 4.27 µM
TGI (SK-OV-3 ovarian): > 100 µM
GI50 (SR leukemia): 0.578 µM
TGI (SR leukemia): 4.51 µM
GI50 (SW-620 colon): 1.67 µM
TGI (SW-620 colon): 3.86 µM
GI50 (T-47D breast): 2.41 µM
TGI (T-47D breast): > 100 µM
GI50 (UO-31 renal): 1.45 µM
TGI (UO-31 renal): 3.04 µM

Reference: PubChem BioAssay (NCI)
